According to patent US20230212129A1, “QUINAZOLINE DERIVATIVES USEFUL AS SELECTIVE HDAC6 INHIBITORS” (AnnJi Pharmaceutical Co., Ltd., priority 2020, published 2023):

Columns and labels:
[1] = molecular target: T1, HDAC1 (Homo sapiens, UniProt Q13547); test: HDAC1 activity, acetylated-AMC-labeled peptide substrate; type: biochemical
T1 construct: GST (C); host or cells: baculovirus expression system, Sf9 insect cells (SP9 [sic])
Procedure: The activities of HDAC 1 and 6 were measured by using an acetylated-AMC-labeled peptide substrate, a fluorogenic peptide from p53 residues 379-382 (RHIKKAc). The proteins involved in the assay are as the followings (1) Human HIDAC1 (Genflank Accession No. NM_004964): Full length with C-terminal GST tag, MW=79.9 kDa, expressed by baculovirus expression system in SP9 cells; and (2) Human HIDAC6 (Genflank Accession No. BC069243): Full length with N-terminal GST tag, MW=159 kDa, expressed by baculovirus expression system in Sf9 cells.

[2] = tested on: dorsal root ganglion (DRG) cells; test: DRG neurite outgrowth after paclitaxel-induced damage; type: cell-based, C57BL/6J mice; details: 0.1 μM and 1 μM, 24 hours prior to 24-hour 0.1 μM paclitaxel; FIG. 1
Procedure: (§1) To investigate the effect of HDAC6 inhibitors in neuron protection and neuron regeneration, the recovery of dorsal root ganglion (DRG) cells post-paclitaxel injury was tested. Dorsal root ganglion was extracted from 7 week-old female C57BL/6J mice and incubated with HDAC6 inhibitors (compounds COMPOUND 33, COMPOUND 34, or COMPOUND 2) at the concentrations of 0.1 μM and 1 μM, or 100 ng/ml of BDNF, a neuronal growth factor (positive control), for 24 hours prior to a 24-hour incubation of 0.1 μM paclitaxel.
The neurite was stained by pIII-tubulin.

[3] = tested on: acetylated α-tubulin (Ac-α-tub); test: Western blot of acetylated α-tubulin in primary DRG cells; type: cell-based, C57BL/6J mice; details: 48 hours of treatment, FIG. 2
Procedure: as §1

[4] = tested on: Rat DRG cells; test: Cisplatin-induced neurite degeneration in DRG cells; type: cell-based; details: 0.3 μM with 0.5 mM cisplatin, 48 hours; p<0.05; FIG. 3
Procedure: Rat DRG cells were used to investigate the protective effect of HDAC6 inhibitors. DRG cells were treated with 0.5 mM of cisplatin with or without 0.3 μM of COMPOUND 2 or ACY1215 for 48 hours. The neurite area and the number of blebs (cell apoptosis) per image were calculated and their ratio values among the tested groups were compared and shown in FIG. 3.

[5] = tested on: bleomycin-induced pulmonary fibrosis; test: Bleomycin-induced pulmonary fibrosis model, lung histology (H&E); type: in vivo, mice
Procedure: (§2) The activities of compounds COMPOUND 2 and COMPOUND 33 in preventing and/or treating pulmonary fibrosis were examined using a bleomycin-induced pulmonary fibrosis model, a model that involves deactivated bleomycin hydrolase, elevated oxidative stress, and increased inflammatory cytokines. In the prevention model, mice were administered bleomycin intratracheally an hour in prior to the first oral administration of 30 mg/kg testing compounds. The treatment continued for 21 consecutive days, and mice were sacrificed to examine histological changes of lung tissues were analyzed by H&E staining to evaluate the degree of lung fibrosis. Additionally, the HDAC6 inhibitors, COMPOUND 2 and COMPOUND 33, were tested for their effect in aiding animal recovery from lung injury and pulmonary fibrosis post injury.

[6] = tested on: IL-6; test: IL-6 in bronchoalveolar lavage fluid, bleomycin model; type: in vivo, mice; details: prevention model, 30 mg/kg oral, 21 days; FIG. 6
Procedure: as §2, with “fibrosis.” for “fibrosis. Additionally, the HDAC6 inhibitors, COMPOUND 2 and COMPOUND 33, were tested for their effect in aiding animal recovery from lung injury and pulmonary fibrosis post injury.”

[7] = tested on: paclitaxel-induced peripheral neuropathy; test: Paclitaxel-induced peripheral neuropathy, Von Frey test; type: in vivo, Sprague-Dawley (SD) rats
Procedure: Male Sprague-Dawley (SD) rats, weighing 320±30 grams, were given paclitaxel intraperitoneally at the dose of 6 mg/kg for 5 consecutive days with a total cumulative dose of 30 mg/kg to induce chemotherapy-induced peripheral neuropathy.
Compound 2 or vehicle was administered orally once daily for 2 weeks during the weekdays (Days 8 to 12 and 15-19). Mechanical allodynia is assessed by the manual Von Frey test once per week. The animals are given 20 to 30 minutes to acclimatize prior to the testing. The paw is pressed with a series of 8 manual Von Frey monofilaments with logarithmically incremental stiffness [3.61 (0.4 g), 3.84 (0.6 g), 4.08 (1.0 g), 4.31 (2.0 g), 4.56 (4.0 g), 4.93 (8.0 g), 5.18 (15.0 g) and (26.0 g)]. The manual Von Frey monofilament was applied perpendicularly from underneath the mesh floor to the central plantar surface with sufficient force to cause a slight buckling against the paw, and held for approximately 6-8 seconds. A positive response was noted if the paw is sharply withdrawn; ambulation is considered an ambiguous response, and in such cases, the stimulus is reapplied. The 50% paw withdrawal threshold (PWT) to a static mechanical stimulus was assessed using Von Frey filament and up-and-down method.
Von Frey data were presented as mean±SEM (Standard Error of the Mean). Treatment groups were compared to the paclitaxel control using Student's T-test. A p value <0.05 is considered to represent a significant difference.

T1 sequence (Q13547 whole entry): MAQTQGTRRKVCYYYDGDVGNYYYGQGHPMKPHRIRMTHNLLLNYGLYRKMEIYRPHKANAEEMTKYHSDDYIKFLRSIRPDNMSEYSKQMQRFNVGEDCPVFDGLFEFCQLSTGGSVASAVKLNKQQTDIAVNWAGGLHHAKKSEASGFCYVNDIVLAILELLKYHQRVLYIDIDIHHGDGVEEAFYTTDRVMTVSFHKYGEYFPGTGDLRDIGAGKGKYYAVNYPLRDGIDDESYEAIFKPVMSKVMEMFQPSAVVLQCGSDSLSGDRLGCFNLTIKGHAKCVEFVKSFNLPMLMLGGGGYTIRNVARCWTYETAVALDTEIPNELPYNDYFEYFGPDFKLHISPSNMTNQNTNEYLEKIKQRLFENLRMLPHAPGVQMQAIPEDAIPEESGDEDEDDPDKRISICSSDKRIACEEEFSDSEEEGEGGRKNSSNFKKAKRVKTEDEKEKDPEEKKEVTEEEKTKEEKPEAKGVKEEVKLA

In the case of `CCc1nc2cc(F)c(/C=C/C(=O)NO)cc2c(=O)n1-c1c(C)cccc1C` [Compound 2, (E)-3-(3-(2,6-dimethylphenyl)-2-ethyl-7-fluoro-4-oxo-3,4-dihydroquinazolin-6-yl)-N-hydroxyacrylamide], the IC50 [1] is reported as 5.17 µM, the neurite outgrowth [2] is reported as “significantly rescued the neurite outgrowth” and the tubulin hyperacetylation [3] is reported as “tubulin hyperacetylation”. For the same compound, the “neurite degeneration (neurite area and number of blebs ratio)” value [4] was “significantly lesser degree of neurite degeneration”, the “development of lung fibrosis” value ([5]; prevention model, 30 mg/kg oral, 21 consecutive days, FIG. 5) was “markedly decreased the development of lung fibrosis” and the “recovery from lung injury and pulmonary fibrosis post injury” value ([5]; treatment post injury) was “protective effect in pulmonary inflammatory response and pulmonary fibrosis”. For the same compound, the “IL-6 level in the BALF” value [6] was “suppressed IL-6 level in the BALF”, the “duration of effect after the dosing was stopped” value ([7]; 15 and 30 mg/kg) was no less than 14 days and the “sensitivity to the mechanical stimulation” value ([7]; 15 and 30 mg/kg, starting from study Day 14) was “significantly reduced the sensitivity”. For the same compound, the “pain-relief after dosing was stopped” value ([7]; FIG. 7) was “maintained for at least two weeks after dosing was stopped” and the “threshold of mean withdrawal force” value ([7]; vs vehicle, from study Day 14, oral once daily Days 8 to 12 and 15-19) was “significant increase in the threshold of mean withdrawal force”.
